Test results: PubChem BioAssay AID1845215 (Molecular Pharmacology Branch, DTP, NCI, 2023)

System: SW 1271 complex tumor spheroid viability
Assay: Anticancer human tumor SW 1271 cell line growth inhibition;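 note: spheroids exposed to agents for seven days before readout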;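 for viability, T/C: percent of DMSO vehicle control luminescence so 100% = vehicle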
Conditions: for IC50: curve of first compound; for viability, T/C: stronger effect = lower value
Outline: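 Single agents and combinations were tested on spheroids built from tumor cells plus HUVEC and hMSC, at half-log dilutions starting at or near clinical Cmax, else 10 microM; final DMSO 0.25% (v/v).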

[1] = second compound 30 pM, first compound 0.0316 µM
[2] = second compound 30 pM, first compound 0.1 µM
[3] = second compound 30 pM, first compound 0.316 µM
[4] = second compound 30 pM, first compound 1 µM
[5] = second compound 30 pM, first compound 3.16 µM
[6] = second compound 30 pM, first compound 10 µM
[7] = second compound 94.9 pM, first compound 0.0316 µM
[8] = second compound 94.9 pM, first compound 0.1 µM
[9] = second compound 94.9 pM, first compound 0.316 µM
[10] = second compound 94.9 pM, first compound 1 µM
[11] = second compound 94.9 pM, first compound 3.16 µM
[12] = second compound 94.9 pM, first compound 10 µM
[13] = second compound 0.0003 µM, first compound 0.0316 µM
[14] = second compound 0.0003 µM, first compound 0.1 µM
[15] = second compound 0.0003 µM, first compound 0.316 µM
[16] = second compound 0.0003 µM, first compound 1 µM
[17] = second compound 0.0003 µM, first compound 3.16 µM
[18] = second compound 0.0003 µM, first compound 10 µM
[19] = second compound 0.000949 µM, first compound 0.0316 µM
[20] = second compound 0.000949 µM, first compound 0.1 µM
[21] = second compound 0.000949 µM, first compound 0.316 µM
[22] = second compound 0.000949 µM, first compound 1 µM
[23] = second compound 0.000949 µM, first compound 3.16 µM
[24] = second compound 0.000949 µM, first compound 10 µM
[25] = second compound 0.003 µM, first compound 0.0316 µM
[26] = second compound 0.003 µM, first compound 0.1 µM
[27] = second compound 0.003 µM, first compound 0.316 µM
[28] = second compound 0.003 µM, first compound 1 µM
[29] = second compound 0.003 µM, first compound 3.16 µM
[30] = second compound 0.003 µM, first compound 10 µM

SMILES: CC1COCCN1c1cc(-c2ccnn2C)c2ccnc(-c3ccn[nH]3)c2n1 (stereo not given) + COc1cc2c(cc1O)CCNC21CSC2c3c(OC(C)=O)c(C)c4c(c3C(COC1=O)N1C(O)C3Cc5cc(C)c(OC)c(O)c5C(C21)N3C)OCO4
- IC50 (second compound 30 pM): < 31.6 nM
- IC50 (second compound 94.9 pM): < 31.6 nM
- IC50 (second compound 0.0003 µM): < 31.6 nM
- IC50 (second compound 0.000949 µM): < 31.6 nM
- IC50 (second compound 0.003 µM): < 31.6 nM
- viability, T/C [1]: 42.9%
- viability, T/C [2]: 12.5%
- viability, T/C [3]: 7.53%
- viability, T/C [4]: 3.2%
- viability, T/C [5]: 2.78%
- viability, T/C [6]: 2.04%
- viability, T/C [7]: 10.9%
- viability, T/C [8]: 6.89%
- viability, T/C [9]: 5.14%
- viability, T/C [10]: 3.73%
- viability, T/C [11]: 1.95%
- viability, T/C [12]: 2.12%
- viability, T/C [13]: 10.8%
- viability, T/C [14]: 6.88%
- viability, T/C [15]: 5.11%
- viability, T/C [16]: 2.88%
- viability, T/C [17]: 1.51%
- viability, T/C [18]: 1.29%
- viability, T/C [19]: 3%
- viability, T/C [20]: 1.96%
- viability, T/C [21]: 1.34%
- viability, T/C [22]: 1.09%
- viability, T/C [23]: 0.1%
- viability, T/C [24]: 0.3%
- viability, T/C [25]: 0.1%
- viability, T/C [26]: 0.09%
- viability, T/C [27]: 0.1%
- viability, T/C [28]: 0.08%
- viability, T/C [29]: 0.09%
- viability, T/C [30]: 0.15%

SMILES: COc1cc(C)[nH]c(=O)c1CN1CCc2c(Cl)cc(C(OC)C3COC3)c(Cl)c2C1=O (stereo not given) + COc1cc2c(cc1O)CCNC21CSC2c3c(OC(C)=O)c(C)c4c(c3C(COC1=O)N1C(O)C3Cc5cc(C)c(OC)c(O)c5C(C21)N3C)OCO4
- IC50 (second compound 30 pM): > 10000 nM
- IC50 (second compound 94.9 pM): 5220 nM
- IC50 (second compound 0.0003 µM): < 31.6 nM
- IC50 (second compound 0.000949 µM): < 31.6 nM
- IC50 (second compound 0.003 µM): < 31.6 nM
- viability, T/C [1]: 101%
- viability, T/C [2]: 96%
- viability, T/C [3]: 96.4%
- viability, T/C [4]: 89.6%
- viability, T/C [5]: 86.8%
- viability, T/C [6]: 77.1%
- viability, T/C [7]: 65.9%
- viability, T/C [8]: 75.3%
- viability, T/C [9]: 67.4%
- viability, T/C [10]: 64.4%
- viability, T/C [11]: 57%
- viability, T/C [12]: 40.9%
- viability, T/C [13]: 33.3%
- viability, T/C [14]: 37%
- viability, T/C [15]: 34.2%
- viability, T/C [16]: 38.3%
- viability, T/C [17]: 36.6%
- viability, T/C [18]: 37.1%
- viability, T/C [19]: 5.93%
- viability, T/C [20]: 5.35%
- viability, T/C [21]: 4.91%
- viability, T/C [22]: 3.61%
- viability, T/C [23]: 7.88%
- viability, T/C [24]: 2.67%
- viability, T/C [25]: 0.11%
- viability, T/C [26]: 0.12%
- viability, T/C [27]: 0.11%
- viability, T/C [28]: 0.11%
- viability, T/C [29]: 0.11%
- viability, T/C [30]: 0.16%

SMILES: Cc1cc(C)c(CNC(=O)c2cc(-c3ccc(CN4CCOCC4)cc3)cc3c2cnn3C2CCCC2)c(=O)[nH]1 + COc1cc2c(cc1O)CCNC21CSC2c3c(OC(C)=O)c(C)c4c(c3C(COC1=O)N1C(O)C3Cc5cc(C)c(OC)c(O)c5C(C21)N3C)OCO4
- IC50 (second compound 30 pM): > 10000 nM
- IC50 (second compound 94.9 pM): 987 nM
- IC50 (second compound 0.0003 µM): < 31.6 nM
- IC50 (second compound 0.000949 µM): < 31.6 nM
- IC50 (second compound 0.003 µM): < 31.6 nM
- viability, T/C [1]: 86.2%
- viability, T/C [2]: 92.9%
- viability, T/C [3]: 90.4%
- viability, T/C [4]: 87.4%
- viability, T/C [5]: 84.5%
- viability, T/C [6]: 66.2%
- viability, T/C [7]: 59.6%
- viability, T/C [8]: 63.3%
- viability, T/C [9]: 66.6%
- viability, T/C [10]: 49.8%
- viability, T/C [11]: 40.7%
- viability, T/C [12]: 34.4%
- viability, T/C [13]: 32.9%
- viability, T/C [14]: 35.7%
- viability, T/C [15]: 34.1%
- viability, T/C [16]: 30.3%
- viability, T/C [17]: 29.3%
- viability, T/C [18]: 24%
- viability, T/C [19]: 2.96%
- viability, T/C [20]: 14.8%
- viability, T/C [21]: 2.88%
- viability, T/C [22]: 3.26%
- viability, T/C [23]: 1.94%
- viability, T/C [24]: 1.96%
- viability, T/C [25]: 0.23%
- viability, T/C [26]: 0.24%
- viability, T/C [27]: 0.28%
- viability, T/C [28]: 0.25%
- viability, T/C [29]: 0.21%
- viability, T/C [30]: 0.29%

SMILES: Cc1sc2c(c1C)C(c1ccc(Cl)cc1)=NC(CC(=O)Nc1ccc(O)cc1)c1nnc(C)n1-2 (stereo not given) + COc1cc2c(cc1O)CCNC21CSC2c3c(OC(C)=O)c(C)c4c(c3C(COC1=O)N1C(O)C3Cc5cc(C)c(OC)c(O)c5C(C21)N3C)OCO4
- IC50 (second compound 30 pM): 145 nM
- IC50 (second compound 94.9 pM): 41.6 nM
- IC50 (second compound 0.0003 µM): < 9.49 nM
- IC50 (second compound 0.000949 µM): < 9.49 nM
- IC50 (second compound 0.003 µM): < 9.49 nM
- viability, T/C (second compound 30 pM, first compound 0.00949 µM): 101%
- viability, T/C (second compound 30 pM, first compound 0.03 µM): 108%
- viability, T/C (second compound 30 pM, first compound 0.0949 µM): 74.3%
- viability, T/C (second compound 30 pM, first compound 0.3 µM): 8.06%
- viability, T/C (second compound 30 pM, first compound 0.949 µM): 1.02%
- viability, T/C (second compound 30 pM, first compound 3 µM): 0.91%
- viability, T/C (second compound 94.9 pM, first compound 0.00949 µM): 76.2%
- viability, T/C (second compound 94.9 pM, first compound 0.03 µM): 57.9%
- viability, T/C (second compound 94.9 pM, first compound 0.0949 µM): 28.9%
- viability, T/C (second compound 94.9 pM, first compound 0.3 µM): 5.41%
- viability, T/C (second compound 94.9 pM, first compound 0.949 µM): 1.12%
- viability, T/C (second compound 94.9 pM, first compound 3 µM): 0.93%
- viability, T/C (second compound 0.0003 µM, first compound 0.00949 µM): 30.6%
- viability, T/C (second compound 0.0003 µM, first compound 0.03 µM): 23.9%
- viability, T/C (second compound 0.0003 µM, first compound 0.0949 µM): 13.5%
- viability, T/C (second compound 0.0003 µM, first compound 0.3 µM): 2.97%
- viability, T/C (second compound 0.0003 µM, first compound 0.949 µM): 1.45%
- viability, T/C (second compound 0.0003 µM, first compound 3 µM): 0.77%
- viability, T/C (second compound 0.000949 µM, first compound 0.00949 µM): 6.61%
- viability, T/C (second compound 0.000949 µM, first compound 0.03 µM): 6.28%
- viability, T/C (second compound 0.000949 µM, first compound 0.0949 µM): 2.99%
- viability, T/C (second compound 0.000949 µM, first compound 0.3 µM): 1.78%
- viability, T/C (second compound 0.000949 µM, first compound 0.949 µM): 0.1%
- viability, T/C (second compound 0.000949 µM, first compound 3 µM): 0.09%
- viability, T/C (second compound 0.003 µM, first compound 0.00949 µM): 0.11%
- viability, T/C (second compound 0.003 µM, first compound 0.03 µM): 0.11%
- viability, T/C (second compound 0.003 µM, first compound 0.0949 µM): 0.11%
- viability, T/C (second compound 0.003 µM, first compound 0.3 µM): 0.11%
- viability, T/C (second compound 0.003 µM, first compound 0.949 µM): 0.09%
- viability, T/C (second compound 0.003 µM, first compound 3 µM): 0.17%

SMILES: [2H]c1nc(C)nc([2H])c1-c1cc(NC[C@@H](C)c2cccc3c(C(=O)NC)ccnc23)ncn1 + COc1cc2c(cc1O)CCNC21CSC2c3c(OC(C)=O)c(C)c4c(c3C(COC1=O)N1C(O)C3Cc5cc(C)c(OC)c(O)c5C(C21)N3C)OCO4
- IC50 (second compound 30 pM): > 10000 nM
- IC50 (second compound 94.9 pM): > 10000 nM
- IC50 (second compound 0.0003 µM): < 31.6 nM
- IC50 (second compound 0.000949 µM): < 31.6 nM
- IC50 (second compound 0.003 µM): < 31.6 nM
- viability, T/C [1]: 104%
- viability, T/C [2]: 93.9%
- viability, T/C [3]: 98.7%
- viability, T/C [4]: 96.4%
- viability, T/C [5]: 93.4%
- viability, T/C [6]: 90.1%
- viability, T/C [7]: 60.4%
- viability, T/C [8]: 68.6%
- viability, T/C [9]: 75.6%
- viability, T/C [10]: 69.9%
- viability, T/C [11]: 63.4%
- viability, T/C [12]: 51.7%
- viability, T/C [13]: 33.1%
- viability, T/C [14]: 35.1%
- viability, T/C [15]: 33.4%
- viability, T/C [16]: 30.1%
- viability, T/C [17]: 34.2%
- viability, T/C [18]: 31.6%
- viability, T/C [19]: 10.5%
- viability, T/C [20]: 4.86%
- viability, T/C [21]: 4.58%
- viability, T/C [22]: 3.72%
- viability, T/C [23]: 2.73%
- viability, T/C [24]: 1.89%
- viability, T/C [25]: 0.1%
- viability, T/C [26]: 0.09%
- viability, T/C [27]: 0.1%
- viability, T/C [28]: 0.09%
- viability, T/C [29]: 0.09%
- viability, T/C [30]: 0.17%
